Patent publication US20200164025A1, “AN[…] E[…] AND ACE2 BY BRG1-FOXM1 COMPLEX UNDERLIES PA[…] HYPERTROPHY” (INDIANA UNIVERSITY RESEARCH AND TECHNOLOGY CORPORATION, priority 2014, published 2020)

Columns and labels:
Ace and Ace2 = test: Western blot analysis of Ace and Ace2 in heart ventricles of thiostrepton treated mice after TAC; assay type: in vivo; details: 2 weeks after TAC
Procedure: (§1) FoxM1 is a transcription factor that regulates the expression of genes associated with pathological hypertrophy. […] However, FoxM1 mRNA increased by 8.4-fold in TAC-stressed hearts (FIG. 6A), and the protein was present in the nuclei of both myocytes and endothelial cells of stressed hearts (FIGS. 6B and 6C). Because of the stress-induced endothelial expression of FoxM1, it was evaluated if FoxM1 cooperated with Brg1 to regulate Ace and Ace2 expression. The necessity of FoxM1 activation for cardiac hypertrophy by using FoxM1 inhibitor thiostrepton to inhibit FoxM1 in TAC-stressed hearts was tested. Within 4 weeks after TAC, the control mice injected with DMSO developed severe cardiac hypertrophy with increased ventricle-body weight ratio, interstitial fibrosis, and cardiac dysfunction with reduced left ventricular fractional shortening (FS) (FIGS. 6D, 6E, and 6G). […] Collectively, these findings indicate that FoxM1 activation by stress is necessary for cardiac myopathy and for stress-induced changes of Ace and Ace2.

Ace and Ace2 promoter = test: Luciferase reporter assays of Ace and Ace2 proximal promoters in mouse cardiac endothelial cells; assay type: cell-based; details: MCEC cells
Procedure: The transcriptional activity of Brg1 on the Ace and Ace2 promoters was also tested. 3.1 kb of Ace upstream promoter (−2983 bp to +174 bp) and 7.8 Kb of Ace2 upstream promoter (−7063 bp to +786 bp) were cloned into the episomal reporter pREP4 that undergoes chromatinization in mammalian cells. The reporter constructs and Brg1-expressing plasmid were transfected into mouse cardiac endothelial cells. In these cells, Brg1 caused a 1.7-fold increase in Ace promoter activity and 59% reduction in Ace2 promoter activity (FIG. 5P). Combined with the ChIP results, these reporter studies indicate that Brg1 activates Ace promoter and represses Ace2 promoter, providing a mechanism for the antithetical changes of Ace and Ace2 in stressed hearts.
Inhibition of FoxM1 by thiostrepton eliminated the ability of Brg to activate Ace and repress Ace2 promoter (FIGS. 10F and 10G).

TAC-stressed hearts = test: TAC pressure-overload cardiac hypertrophy in mice treated with thiostrepton; assay type: in vivo
Procedure: as §1

With `C=C(NC(=O)C(=C)NC(=O)c1csc(C2=N[C@@H]3c4csc(n4)[C@H]4NC(=O)c5csc(n5)[C@H]([C@](C)(O)[C@@H](C)O)NC(=O)[C@H]5CSC(=N5)/C(=C/C)NC(=O)[C@H]([C@@H](C)O)NC(=O)c5csc(n5)[C@]3(CC2)NC(=O)[C@H](C)NC(=O)C(=C)NC(=O)[C@H](C)NC(=O)[C@H]([C@@H](C)CC)N[C@@H]2C=Cc3c([C@H](C)O)cc(nc3[C@H]2O)C(=O)O[C@@H]4C)n1)C(N)=O` [thiostrepton] the “TAC-induced changes of Ace and Ace2” value (Ace and Ace2; Western blot of heart ventricles) was “abolished”, the “reduction of Ace/Ace2 ratio in stressed hearts” value (Ace and Ace2; Western blot quantitation) was 6.53 fold and the “ability of Brg to activate Ace and repress Ace2 promoter” value (Ace and Ace2 promoter) was “eliminated”. The “improvement of left ventricular fractional shortening (FS)” value (TAC-stressed hearts; 4 weeks after TAC, echocardiography, vs DMSO control) was 28%, the “reduction of hypertrophy (ventricle-body weight ratio)” value (TAC-stressed hearts; 4 weeks after TAC, vs DMSO control) was about 50% and the cardiac dysfunction (TAC-stressed hearts; within 4 weeks after TAC) was “lesser degree of cardiac dysfunction”. For the same molecule, the interstitial fibrosis (TAC-stressed hearts; within 4 weeks after TAC, trichrome staining) was “mild interstitial fibrosis” and the cardiac hypertrophy (TAC-stressed hearts; within 4 weeks after TAC, vs DMSO control) was “mild cardiac hypertrophy”.
